Experimental data published in patent US20090137557A1, “Calcilytic Compounds” (priority 2005, published 2009).

target: T1, human calcium receptor (Homo sapiens, UniProt P41180); experiment: Calcium Receptor Inhibitor Assay (block of intracellular Ca2+ increase elicited by extracellular Ca2+, fluo-3); type: cell-based; set-up: key: Compounds having an IC50 greater than 30 uM were considered to be inactive; Compounds having an IC50 greater than 30 uM were considered to be inactive; conditions: HEK 293 4.0-7 cells stably expressing the human calcium receptor; at the concentrations used
T1 construct: expressed in transfected cells; host or cells: HEK 293 4.0-7
T1 sequence (P41180 20-1078): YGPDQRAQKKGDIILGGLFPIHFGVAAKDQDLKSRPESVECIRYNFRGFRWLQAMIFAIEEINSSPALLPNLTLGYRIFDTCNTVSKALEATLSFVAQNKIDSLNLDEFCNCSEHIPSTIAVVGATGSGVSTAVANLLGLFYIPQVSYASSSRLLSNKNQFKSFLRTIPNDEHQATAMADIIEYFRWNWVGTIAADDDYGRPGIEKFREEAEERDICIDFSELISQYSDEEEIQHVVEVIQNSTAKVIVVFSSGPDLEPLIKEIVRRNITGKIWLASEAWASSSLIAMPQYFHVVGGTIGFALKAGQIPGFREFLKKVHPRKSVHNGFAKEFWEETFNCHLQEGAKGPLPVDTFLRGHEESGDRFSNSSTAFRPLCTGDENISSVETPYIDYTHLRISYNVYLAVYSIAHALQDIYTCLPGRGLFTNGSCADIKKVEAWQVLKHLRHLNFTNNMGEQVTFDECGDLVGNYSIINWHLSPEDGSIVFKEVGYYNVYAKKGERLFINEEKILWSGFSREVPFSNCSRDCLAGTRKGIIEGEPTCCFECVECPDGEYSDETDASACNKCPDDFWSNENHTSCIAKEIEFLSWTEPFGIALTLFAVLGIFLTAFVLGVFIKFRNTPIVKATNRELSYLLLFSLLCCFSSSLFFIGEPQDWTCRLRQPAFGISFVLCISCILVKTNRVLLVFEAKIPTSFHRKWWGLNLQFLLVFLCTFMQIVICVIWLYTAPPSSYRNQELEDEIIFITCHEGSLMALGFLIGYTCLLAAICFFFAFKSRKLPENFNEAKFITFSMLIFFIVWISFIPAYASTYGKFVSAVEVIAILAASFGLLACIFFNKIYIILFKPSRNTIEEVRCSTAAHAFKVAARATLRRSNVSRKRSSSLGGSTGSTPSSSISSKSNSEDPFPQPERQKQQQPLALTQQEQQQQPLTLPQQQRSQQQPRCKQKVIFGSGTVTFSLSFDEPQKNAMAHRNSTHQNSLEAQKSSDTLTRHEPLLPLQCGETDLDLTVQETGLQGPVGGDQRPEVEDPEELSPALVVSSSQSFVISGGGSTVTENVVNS
Method: (I) Calcium Receptor Inhibitor Assay
Calcilytic activity was measured by determining the IC50 of the test compound for blocking increases of intracellular Ca^2+ elicited by extracellular Ca^2+ in HEK 293 4.0-7 cells stably expressing the human calcium receptor. HEK 293 4.0-7 cells were constructed as described by Rogers et al., J. Bone Miner. Res. 10 Suppl. 1:3483, 1995 (hereby incorporated by reference herein). Intracellular Ca^2+ increases were elicited by increasing extracellular Ca^2+ from 1 to 1.75 mM. Intracellular Ca^2+ was measured using fluo-3, a fluorescent calcium indicator.
The procedure was as follows:
1. Cells were maintained in T-150 flasks in selection media (DMEM supplemented with 10% fetal bovine serum and 200 ug/mL hygromycin B), under 5% CO2:95% air at 37° C. and were grown up to 90% confluency.
2. The medium was decanted and the cell monolayer was washed twice with phosphate-buffered saline (PBS) kept at 37° C. After the second wash, 6 mL of 0.02% EDTA in PBS was added and incubated for 4 minutes at 37° C. Following the incubation, cells were dispersed by gentle agitation.
3. Cells from 2 or 3 flasks were pooled and pelleted (100×g). The cellular pellet was resuspended in 10-15 mL of SPF-PCB+ and pelleted again by centrifugation. This washing was done twice.
Sulfate- and phosphate-free parathyroid cell buffer (SPF-PCB) contains 20 mM Na-Hepes, pH 7.4, 126 mM NaCl, 5 mM KCl, and 1 mM MgCl2. SPF-PCB was made up and stored at 4° C. On the day of use, SPF-PCB was supplemented with 1 mg/mL of D-glucose and 1 mM CaCl2 and then split into two fractions. To one fraction, bovine serum albumin (BSA; fraction V, ICN) was added at 5 mg/mL (SPF-PCB+). This buffer was used for washing, loading and maintaining the cells. The BSA-free fraction was used for diluting the cells in the cuvette for measurements of fluorescence.
4. The pellet was resuspended in 10 mL of SPF-PCB+ containing 2.2 uM fluo-3 (Molecular Probes) and incubated at room temperature for 35 minutes.
5. Following the incubation period, the cells were pelleted by centrifugation. The resulting pellet was washed with SPF-PCB+. After this washing, cells were resuspended in SPF-PCB+ at a density of 1-2×10^6 cells/mL.
6. For recording fluorescent signals, 300 uL of cell suspension were diluted in 1.2 mL of SPF buffer containing 1 mM CaCl2 and 1 mg/mL of D-glucose. Measurements of fluorescence were performed at 37° C. with constant stirring using a spectrofluorimeter. Excitation and emission wavelengths were measured at 485 and 535 nm, respectively. To calibrate fluorescence signals, digitonin (5 mg/mL in ethanol) was added to obtain Fmax, and the apparent Fmin was determined by adding Tris-EGTA (2.5 M Tris-Base, 0.3 M EGTA). The concentration of intracellular calcium was calculated using the following equation:
Intracellular calcium=(F−Fmin/Fmax)×Kd; where Kd=400 nM.
7. To determine the potential calcilytic activity of test compounds, cells were incubated with test compound (or vehicle as a control) for 90 seconds before increasing the concentration of extracellular Ca^2+ from 1 to 2 mM. Calcilytic compounds were detected by their ability to block, in a concentration-dependent manner, increases in the concentration of intracellular Ca^2+ elicited by extracellular Ca^2+.
In general, those compounds having lower IC50 values in the Calcium Receptor Inhibitor Assay are more preferred compounds. […] The present examples were tested except for Examples 11, 20, 28, 44 and 107.

IC50 for blocking increases of intracellular Ca2+ elicited by extracellular Ca2+ (calcilytic activity), inactive:
CCc1c(N2CCCCC2)nc(-c2cccc(F)c2O)n(CCc2cccc(F)c2)c1=O [Example 27, 5-Ethyl-2-(3-fluoro-2-hydroxyphenyl)-3-[2-(3-fluorophenyl)ethyl]-6-(1-Piperidinyl)-4(3H)-pyrimidinone]
CCc1c(CCC2CCCCC2)nc(-c2cccc(F)c2O)n(CCc2ccccc2F)c1=O [Example 46]
COc1ccccc1-c1nc(C)c(-c2cccs2)c(=O)n1CCc1ccccc1 [Example 100, 6-Methyl-2-[2-(methyloxy)phenyl]-3-(2-phenylethyl)-5-(2-thienyl)-4(3H)-pyrimidinone]
Cc1nc(-c2ccccc2O)n(CCc2ccccc2)c(=O)c1N [Example 123, 5-Amino-2-(2-hydroxyphenyl)-6-methyl-3-(2-phenylethyl)-4(3H)-pyrimidinone]
Cc1nc(-c2ccccc2O)n(CCc2ccccc2)c(=O)c1NC(=O)C(C)C [Example 127, N-[2-(2-Hydroxyphenyl)-4-methyl-6-oxo-1-(2-phenylethyl)-1,6-dihydro-5-pyrimidinyl]-2-methylpropanamide]
Cc1nc(-c2ccccc2O)n(CCc2ccccc2)c(=O)c1-c1ccc(-c2nnn[nH]2)s1 [Example 214, 2-(2-hydroxyphenyl)-6-methyl-3-(2-phenylethyl)-5-[5-(1H-tetrazol-5-yl)-2-thienyl]-4(3H)-pyrimidinone]
Cc1nc(-c2ccccc2O)n(CCc2ccccc2)c(=O)c1-c1ccc(CN)s1 [Example 215, 5-[5-(Aminomethyl)-2-thienyl]-2-(2-hydroxyphenyl)-6-methyl-3-(2-phenylethyl)-4(3H)-pyrimidinone]
CNCc1ccc(-c2c(C)nc(-c3ccccc3O)n(CCc3ccccc3)c2=O)s1 [Example 216, 2-(2-hydroxyphenyl)-6-methyl-5-{5-[(methylamino)methyl]-2-thienyl}-3-(2-phenylethyl)-4(3H)-pyrimidinone]
